{"source": "patent EP1043318A1", "about": "(priority 1997, dated 1999)"}
{"tested_on": "M. tuberculosis 16R", "assay_type": "cell-based", "conditions": "strain resistant to control preparations; concentration of the preparation 50.0 g/l (table title); incubated 30 days"}
{"smiles": "NNC(=O)c1ccncc1", "note": "[Isoniazid]", "M. tuberculosis 16R growth": "growth"}
{"smiles": "CC[C@@H](CO)NCCN[C@@H](CC)CO", "note": "[Ethambutol]", "M. tuberculosis 16R growth": "growth"}
{"smiles": "O=C1NC(=S)NC(=O)C1C(c1ccc([N+](=O)[O-])cc1)C1C(=O)NC(=S)NC1=O", "note": "[X, 5,5'-(p-nitrobenzylidene)bis (2-thiobarbituric) acid]", "M. tuberculosis 16R growth": "complete suppression of growth"}
{"smiles": "[H]/N=C(/N)N[C@H]1[C@H](O)[C@@H](O)[C@H](O[C@@H]2O[C@@H](C)[C@](O)(C=O)[C@H]2O[C@@H]2O[C@@H](CO)[C@H](O)[C@@H](O)[C@@H]2NC)[C@@H](N/C(N)=N\\[H])[C@@H]1O", "note": "[Streptomycin]", "M. tuberculosis 16R growth": "growth"}
